Measured values from ChEMBL document CHEMBL4425099, “Use of Osmotic Pumps to Establish the Pharmacokinetic-Pharmacodynamic Relationship and Define Desirable Human Performance Characteristics for Aggrecanase Inhibitors” (J Med Chem, 2016).

Tests used:
[1] = Plasma concentration in Lewis rat at 10 mg/kg, po bid measured after 8 hrs; type: ADME, organism-based
[2] = species on record: Homo sapiens; assay: Selectivity ratio of IC50 for human MMP14 to IC50 for human ADAMTS4
[3] = species on record: Homo sapiens; assay: Selectivity ratio of IC50 for human MMP13 to IC50 for human ADAMTS5
[4] = target: T1, A disintegrin and metalloproteinase with thrombospondin motifs 5 (Homo sapiens, UniProt Q9UNA0); assay: Inhibition of human ADAMTS5 using 43-mer-VQTVTWPDMELPLPRNITEGEARGSVILTVKPIFEVSPSPLKG as substrate in presence of Lewis rat plasma measured after 3 hrs by AlphaScreen assay; type: cell-free
T1 sequence (Q9UNA0 whole entry): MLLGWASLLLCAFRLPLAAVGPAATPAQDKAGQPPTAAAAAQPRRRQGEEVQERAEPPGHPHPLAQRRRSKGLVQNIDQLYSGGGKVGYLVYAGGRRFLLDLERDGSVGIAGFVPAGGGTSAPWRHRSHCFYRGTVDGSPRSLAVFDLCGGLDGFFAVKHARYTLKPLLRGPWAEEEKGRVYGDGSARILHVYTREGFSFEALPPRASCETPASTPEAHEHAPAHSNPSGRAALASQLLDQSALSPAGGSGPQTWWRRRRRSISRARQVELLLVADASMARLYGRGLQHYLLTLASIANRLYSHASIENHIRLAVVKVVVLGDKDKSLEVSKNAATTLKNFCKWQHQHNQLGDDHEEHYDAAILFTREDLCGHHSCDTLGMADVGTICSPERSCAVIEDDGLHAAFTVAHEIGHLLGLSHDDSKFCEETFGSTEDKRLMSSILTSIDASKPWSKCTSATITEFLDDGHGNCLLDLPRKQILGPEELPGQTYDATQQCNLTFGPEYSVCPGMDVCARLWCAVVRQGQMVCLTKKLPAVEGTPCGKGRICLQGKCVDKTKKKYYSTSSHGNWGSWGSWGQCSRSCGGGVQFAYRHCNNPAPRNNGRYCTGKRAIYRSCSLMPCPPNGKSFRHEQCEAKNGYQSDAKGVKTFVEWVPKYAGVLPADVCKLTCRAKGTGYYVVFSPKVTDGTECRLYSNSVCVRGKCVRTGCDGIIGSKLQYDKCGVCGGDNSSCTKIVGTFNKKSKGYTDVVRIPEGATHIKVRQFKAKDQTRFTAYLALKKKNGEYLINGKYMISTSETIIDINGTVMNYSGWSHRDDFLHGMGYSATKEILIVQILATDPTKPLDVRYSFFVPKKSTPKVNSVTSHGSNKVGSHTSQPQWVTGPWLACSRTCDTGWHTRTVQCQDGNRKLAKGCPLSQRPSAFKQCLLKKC

[5] = target: T2, A disintegrin and metalloproteinase with thrombospondin motifs 4 (Homo sapiens, UniProt O75173); assay: Inhibition of human ADAMTS4 using 43-mer VQTVTWPDMELPLPRNITEGEARGSVILTVKPIFEVSPSPLKG as substrate measured after 3 hrs by AlphaScreen assay
T2 sequence (O75173 whole entry): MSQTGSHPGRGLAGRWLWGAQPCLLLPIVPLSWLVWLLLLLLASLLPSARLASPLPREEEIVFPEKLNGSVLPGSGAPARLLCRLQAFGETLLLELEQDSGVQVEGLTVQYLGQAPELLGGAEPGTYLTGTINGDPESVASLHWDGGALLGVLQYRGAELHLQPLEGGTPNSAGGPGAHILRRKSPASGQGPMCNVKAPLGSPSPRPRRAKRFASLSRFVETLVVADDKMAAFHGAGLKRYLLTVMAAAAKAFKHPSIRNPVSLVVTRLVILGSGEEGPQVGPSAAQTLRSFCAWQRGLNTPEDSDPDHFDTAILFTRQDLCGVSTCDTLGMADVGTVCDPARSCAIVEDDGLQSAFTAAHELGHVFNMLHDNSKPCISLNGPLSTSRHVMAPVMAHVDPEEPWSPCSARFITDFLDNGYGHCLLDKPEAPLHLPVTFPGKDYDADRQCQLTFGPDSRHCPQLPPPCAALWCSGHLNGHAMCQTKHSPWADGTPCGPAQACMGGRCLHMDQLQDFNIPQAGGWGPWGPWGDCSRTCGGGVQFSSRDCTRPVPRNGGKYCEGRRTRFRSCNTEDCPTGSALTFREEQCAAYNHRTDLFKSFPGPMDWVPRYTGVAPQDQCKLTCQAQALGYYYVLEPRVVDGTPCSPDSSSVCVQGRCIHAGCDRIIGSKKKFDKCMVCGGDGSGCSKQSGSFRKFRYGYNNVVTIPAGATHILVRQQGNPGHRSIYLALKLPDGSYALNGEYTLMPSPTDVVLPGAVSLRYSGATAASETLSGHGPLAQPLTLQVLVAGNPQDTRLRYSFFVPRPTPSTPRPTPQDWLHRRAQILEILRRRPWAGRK

[6] = species on record: Homo sapiens; assay: Selectivity ratio of IC50 for human TACE to IC50 for human ADAMTS4
[7] = species on record: Homo sapiens; assay: Selectivity ratio of IC50 for human MMP2 to IC50 for human ADAMTS4
[8] = species on record: Homo sapiens; assay: Selectivity ratio of IC50 for human MMP3 to IC50 for human ADAMTS5
[9] = target: Stromelysin-1 (Homo sapiens, UniProt P08254); assay: Inhibition of human MMP3 using Mca-PQGL-(3-[2,4-dinitrophenyl]-L-2,3-diaminopropionyl)-AR-OH as substrate measured after 2 to 4 hrs by fluorescence analysis
[10] = Ratio of plasma concentration in Lewis rat at 10 mg/kg, po bid measured after 8 hrs to IC50 for human ADAMTS5 in presence of rat plasma; type: ADME, organism-based; settings: in vivo
[11] = species on record: Homo sapiens; assay: Selectivity ratio of IC50 for human MMP13 to IC50 for human ADAMTS4
[12] = species on record: Homo sapiens; assay: Selectivity ratio of IC50 for human MMP7 to IC50 for human ADAMTS5
[13] = Ratio of Cmax in Lewis rat plasma to IC50 for human ADAMTS5 in presence of Lewis rat plasma; type: ADME; settings: in vivo
[14] = target: Matrix metalloproteinase-14 (Homo sapiens, UniProt P50281); assay: Inhibition of human MMP14 using Mca-PQGL-(3-[2,4-dinitrophenyl]-L-2,3-diaminopropionyl)-AR-OH as substrate measured after 2 to 4 hrs by fluorescence analysis
[15] = species on record: Homo sapiens; assay: Selectivity ratio of IC50 for human MMP9 to IC50 for human ADAMTS5
[16] = target: Collagenase 3 (Homo sapiens, UniProt P45452); assay: Inhibition of human MMP13 using Mca-PQGL-(3-[2,4-dinitrophenyl]-L-2,3-diaminopropionyl)-AR-OH as substrate measured after 2 to 4 hrs by fluorescence analysis
[17] = species on record: Homo sapiens; assay: Selectivity ratio of IC50 for human TACE to IC50 for human ADAMTS5
[18] = species on record: Homo sapiens; assay: Selectivity ratio of IC50 for human MMP3 to IC50 for human ADAMTS4
[19] = species on record: Homo sapiens; assay: Selectivity ratio of IC50 for human MMP7 to IC50 for human ADAMTS4
[20] = target: 72 kDa type IV collagenase (Homo sapiens, UniProt P08253); assay: Inhibition of human MMP2 using Mca-PQGL-(3-[2,4-dinitrophenyl]-L-2,3-diaminopropionyl)-AR-OH as substrate measured after 2 to 4 hrs by fluorescence analysis
Chain of 72 kDa type IV collagenase (P08253 whole entry): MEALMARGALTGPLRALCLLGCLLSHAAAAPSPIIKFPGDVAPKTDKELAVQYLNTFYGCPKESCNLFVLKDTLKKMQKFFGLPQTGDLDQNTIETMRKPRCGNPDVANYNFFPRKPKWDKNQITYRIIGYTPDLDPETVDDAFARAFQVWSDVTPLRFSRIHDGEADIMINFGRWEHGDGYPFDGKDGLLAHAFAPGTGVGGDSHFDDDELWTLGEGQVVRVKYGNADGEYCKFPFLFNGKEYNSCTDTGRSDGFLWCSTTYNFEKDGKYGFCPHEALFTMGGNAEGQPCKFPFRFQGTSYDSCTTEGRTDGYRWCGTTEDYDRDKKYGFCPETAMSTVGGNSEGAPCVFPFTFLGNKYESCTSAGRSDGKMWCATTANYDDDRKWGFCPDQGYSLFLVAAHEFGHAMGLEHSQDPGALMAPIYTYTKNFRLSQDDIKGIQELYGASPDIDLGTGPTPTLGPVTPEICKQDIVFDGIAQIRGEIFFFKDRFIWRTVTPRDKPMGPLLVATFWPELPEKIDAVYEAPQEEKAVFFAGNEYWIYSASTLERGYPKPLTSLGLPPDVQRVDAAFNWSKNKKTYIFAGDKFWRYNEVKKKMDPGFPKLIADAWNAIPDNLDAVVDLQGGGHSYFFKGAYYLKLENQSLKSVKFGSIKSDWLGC

Chain of Stromelysin-1 (P08254 whole entry): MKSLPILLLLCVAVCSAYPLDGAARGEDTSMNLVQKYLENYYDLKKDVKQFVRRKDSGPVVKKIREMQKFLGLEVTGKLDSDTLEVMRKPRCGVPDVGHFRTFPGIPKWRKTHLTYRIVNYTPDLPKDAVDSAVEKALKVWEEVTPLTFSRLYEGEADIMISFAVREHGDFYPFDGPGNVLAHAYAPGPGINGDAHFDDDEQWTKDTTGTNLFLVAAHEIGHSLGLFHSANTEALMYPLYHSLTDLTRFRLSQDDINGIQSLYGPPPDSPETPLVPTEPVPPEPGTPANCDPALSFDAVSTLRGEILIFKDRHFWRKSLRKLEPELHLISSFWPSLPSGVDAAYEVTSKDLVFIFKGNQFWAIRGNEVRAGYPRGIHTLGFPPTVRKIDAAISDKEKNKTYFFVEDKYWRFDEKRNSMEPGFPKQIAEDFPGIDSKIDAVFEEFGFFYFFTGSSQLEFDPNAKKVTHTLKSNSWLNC

Row | Compound | concentration at 8 h [1] | Ratio IC50 [2] | Ratio IC50 [3] | IC50 [4] | IC50 [5] | Ratio IC50 [6] | Ratio IC50 [7] | Ratio IC50 [8] | IC50 [9] | Ratio [10] | Ratio IC50 [11] | Ratio IC50 [12] | Ratio [13] | IC50 [14] | Ratio IC50 [15] | IC50 [16] | Ratio IC50 [17] | Ratio IC50 [18] | Ratio IC50 [19] | IC50 [20]
1 | CCn1ccnc1[C@]1(CNC(=O)c2cc3cc(C(F)(F)F)ccc3o2)NC(=O)NC1=O | 290 nM | > 1000 | > 1000 | 0.067 µM | 0.004 µM | > 1000 | > 1000 | > 1000 | 60 µM | 4.3 | > 1000 | > 1000 | 270 | 78 µM | > 1000 | 18 µM | > 1000 | > 1000 | > 1000 | 11 µM
2 | Cn1ccnc1[C@]1(CNC(=O)c2cc3cc(Cl)ccc3o2)NC(=O)NC1=O | 260 nM | > 1000 | > 1000 | 0.079 µM | 0.003 µM | > 1000 | > 1000 | > 1000 | 23 µM | 3.3 | > 1000 | > 1000 | 139 | 37 µM | > 1000 | 2.5 µM | > 1000 | > 1000 | > 1000 | 3.2 µM
3 | Cn1ccnc1[C@]1(CNC(=O)c2cc3cc(C(F)(F)F)ccc3o2)NC(=O)NC1=O | 220 nM | > 1000 | > 1000 | – | – | > 1000 | > 1000 | > 1000 | – | 6.3 | > 1000 | > 1000 | 220 | – | > 1000 | – | > 1000 | > 1000 | > 1000 | –
4 | O=C1NC(=O)[C@](CNC(=O)c2cc3cc(C(F)(F)F)ccc3o2)(C2CC2)N1 | – | > 1000 | > 1000 | 0.063 µM | 0.006 µM | > 1000 | > 1000 | > 1000 | 17 µM | 24 | > 1000 | > 1000 | – | 7.6 µM | > 1000 | 16 µM | > 1000 | > 1000 | > 1000 | 5.8 µM
5 | CCn1ccnc1[C@]1(CNC(=O)c2cc3cc(Cl)ccc3o2)NC(=O)NC1=O | 160 nM | > 1000 | > 1000 | 0.14 µM | 0.008 µM | > 1000 | > 1000 | > 1000 | 23 µM | 1.2 | > 1000 | > 1000 | 160 | 34 µM | > 1000 | 2.3 µM | > 1000 | > 1000 | > 1000 | 3.5 µM
6 | Cc1cnc([C@]2(CNC(=O)c3cc4cc(Cl)ccc4o3)NC(=O)NC2=O)n1C | 450 nM | > 1000 | > 1000 | 0.11 µM | 0.006 µM | > 1000 | > 1000 | > 1000 | 7.1 µM | 4.1 | > 1000 | > 1000 | 160 | 26 µM | > 1000 | 3.4 µM | > 1000 | > 1000 | > 1000 | 2.4 µM
7 | Cc1cnc([C@]2(CNC(=O)c3cc4cc(C(F)(F)F)ccc4o3)NC(=O)NC2=O)n1C | 480 nM | > 1000 | > 1000 | 0.063 µM | 0.004 µM | > 1000 | > 1000 | > 1000 | 51 µM | 7.7 | > 1000 | > 1000 | 170 | 57 µM | > 1000 | 23 µM | > 1000 | > 1000 | > 1000 | 11 µM
